Results reported in patent US10765114B2, “4-amino-6-(pyridyl and 2-substitutedphenyl)-picolinates and 6-amino-2-(pyridyl and 2-substitutedphenyl)-pyrimidine-4-carboxylates and their use as herbicides” (Dow AgroSciences LLC, priority 2013, dated 2020).

test system: ALOMY (blackgrass); test: Post-Emergent Test III (Wheat and Barley); format: in vivo, Alopecurus myosuroides; conditions: Alopecurus myosuroides, post-emergence, 504 h; 35 g ai/ha, postemergence; read-out: Visual Growth Reduction (%) 21 Days After Application, ALOMY
Procedure: (§1) Seeds of the desired test plant species were planted in Sun Gro MetroMix® 306 planting mixture, which typically has a pH of 6.0 to 6.8 and an organic matter content of about 30 percent, in plastic pots with a surface area of 103.2 square centimeters (cm^2). When required to ensure good germination and healthy plants, a fungicide treatment and/or other chemical or physical treatment was applied. The plants were grown for 7-36 days in a greenhouse with an approximate 14 h photoperiod which was maintained at about 18° C. during the day and 17° C. during the night. Nutrients and water were added on a regular basis and supplemental lighting was provided with overhead metal halide 1000-Watt lamps as necessary. The plants were employed for testing when they reached the second or third true leaf stage.
(§2) A weighed amount, determined by the highest rate to be tested, of each test compound was placed in a 25 mL glass vial and was dissolved in 4 mL of a 97:3 v/v mixture of acetone and DMSO to obtain concentrated stock solutions. […] The concentrated stock solutions obtained were diluted with 20 mL of an aqueous mixture containing acetone, water, isopropyl alcohol, DMSO, Agri-Dex crop oil concentrate, and X-77 surfactant in a 48:39:10:1.5:1.5:0.02 v/v ratio to obtain spray solutions containing the highest application rates. Additional application rates were obtained by serial dilution of 12 mL of the high rate solution into a solution containing 2 mL of 97:3 v/v mixture of acetone and DMSO and 10 mL of an aqueous mixture containing acetone, water, isopropyl alcohol, DMSO, Agri-Dex crop oil concentrate, and X-77 surfactant in a 48:39:10:1.5:1.5:0.02 v/v ratio to obtain ½×, ¼×, ⅛× and 1/16× rates of the high rate. Compound requirements are based upon a 12 mL application volume at a rate of 187 liters per hectare (L/ha). Formulated compounds were applied to the plant material with an overhead Mandel track sprayer equipped with 8002E nozzles calibrated to deliver 187 L/ha over an application area of 0.503 square meters at a spray height of 18 inches (43 cm) above the average plant canopy height. Control plants were sprayed in the same manner with the solvent blank.
(§3) The treated plants and control plants were placed in a greenhouse as described above and watered by subirrigation to prevent wash-off of the test compounds. After 21 dAYS, the condition of the test plants as compared with that of the untreated plants was determined visually and scored on a scale of 0 to 100 percent where 0 corresponds to no injury and 100 corresponds to complete kill and presented as indicated in Table A.
(§4) By applying the well-accepted probit analysis as described by J. Berkson in Journal of the American Statistical Society, 48, 565 (1953) and by D. Finney in “Probit Analysis” Cambridge University Press (1952), herbicidal injury of a specific compound at various rates can be used to calculate GR10, GR20, GR50, GR80 and GR90 values, which are defined as growth reduction factors that correspond to the effective dose of herbicide required to provide plant growth reduction (GR) of 10 percent, 20 percent, 50 percent, 80 percent and 90 percent, respectively. Probit analysis was applied to data collected from multiple dose rates of individual compounds utilizing the procedures explained in the following examples. The analysis of those dose rates is captured in the following tables.

| Compound | pest or weed control at 35 g/ha [%] |
| --- | --- |
| COC(=O)c1nc(-c2ccc(C3CC3)nc2)c(F)c(N)c1Cl [Compound 49] | 0 to 29 |

same assay, conditions: Alopecurus myosuroides, post-emergence, 504 h; 70 g ai/ha, postemergence; read-out: Visual Growth Reduction (%) 21 Days After Application, ALOMY

| Compound | pest or weed control at 70 g/ha [%] |
| --- | --- |
| COC(=O)c1nc(-c2ccc(C3CC3)nc2)c(F)c(N)c1Cl [Compound 49] | 30 to 44 |

same assay, conditions: Alopecurus myosuroides, post-emergence, 504 h; 140 g ai/ha, postemergence; read-out: Visual Growth Reduction (%) 21 Days After Application, ALOMY

| Compound | pest or weed control at 140 g/ha [%] |
| --- | --- |
| COC(=O)c1nc(-c2ccc(C3CC3)nc2)c(F)c(N)c1Cl [Compound 49] | 45 to 59 |

same assay, conditions: effective dose for growth reduction of 50 percent, probit analysis

| Compound | GR50, ALOMY [g ai/ha] |
| --- | --- |
| COC(=O)c1nc(-c2ccc(C3CC3)nc2)c(F)c(N)c1Cl [Compound 49] | >140 |

same assay, conditions: effective dose for growth reduction of 80 percent, probit analysis

| Compound | GR80, ALOMY [g ai/ha] |
| --- | --- |
| COC(=O)c1nc(-c2ccc(C3CC3)nc2)c(F)c(N)c1Cl [Compound 49] | >140 |

test system: APESV (windgrass); test: Post-Emergent Test III (Wheat and Barley); format: in vivo, Apera spica-venti; conditions: Apera spica-venti, post-emergence, 504 h; 35 g ai/ha, postemergence; read-out: Visual Growth Reduction (%) 21 Days After Application, APESV
Procedure: as §1, §2, §3, §4

| Compound | pest or weed control at 35 g/ha [%] |
| --- | --- |
| COC(=O)c1nc(-c2ccc(C3CC3)nc2)c(F)c(N)c1Cl [Compound 49] | 85 to 94 |

same assay, conditions: Apera spica-venti, post-emergence, 504 h; 70 g ai/ha, postemergence; read-out: Visual Growth Reduction (%) 21 Days After Application, APESV

| Compound | pest or weed control at 70 g/ha [%] |
| --- | --- |
| COC(=O)c1nc(-c2ccc(C3CC3)nc2)c(F)c(N)c1Cl [Compound 49] | 75 to 84 |

same assay, conditions: Apera spica-venti, post-emergence, 504 h; 140 g ai/ha, postemergence; read-out: Visual Growth Reduction (%) 21 Days After Application, APESV

| Compound | pest or weed control at 140 g/ha [%] |
| --- | --- |
| COC(=O)c1nc(-c2ccc(C3CC3)nc2)c(F)c(N)c1Cl [Compound 49] | 85 to 94 |

same assay, conditions: effective dose for growth reduction of 50 percent, probit analysis

| Compound | GR50, APESV [g ai/ha] |
| --- | --- |
| COC(=O)c1nc(-c2ccc(C3CC3)nc2)c(F)c(N)c1Cl [Compound 49] | 1 |

same assay, conditions: effective dose for growth reduction of 80 percent, probit analysis

| Compound | GR80, APESV [g ai/ha] |
| --- | --- |
| COC(=O)c1nc(-c2ccc(C3CC3)nc2)c(F)c(N)c1Cl [Compound 49] | 24 |

test system: KCHSC (kochia); test: Post-Emergent Test III (Wheat and Barley); format: in vivo, Kochia scoparia; conditions: Bassia scoparia, post-emergence, 504 h; 35 g ai/ha, postemergence; read-out: Visual Growth Reduction (%) 21 Days After Application, KCHSC
Procedure: as §1, §2, §3, §4

| Compound | pest or weed control at 35 g/ha [%] |
| --- | --- |
| COC(=O)c1nc(-c2ccc(C3CC3)nc2)c(F)c(N)c1Cl [Compound 49] | 95 to 100 |

same assay, conditions: Bassia scoparia, post-emergence, 504 h; 70 g ai/ha, postemergence; read-out: Visual Growth Reduction (%) 21 Days After Application, KCHSC

| Compound | pest or weed control at 70 g/ha [%] |
| --- | --- |
| COC(=O)c1nc(-c2ccc(C3CC3)nc2)c(F)c(N)c1Cl [Compound 49] | 95 to 100 |

same assay, conditions: Bassia scoparia, post-emergence, 504 h; 140 g ai/ha, postemergence; read-out: Visual Growth Reduction (%) 21 Days After Application, KCHSC

| Compound | pest or weed control at 140 g/ha [%] |
| --- | --- |
| COC(=O)c1nc(-c2ccc(C3CC3)nc2)c(F)c(N)c1Cl [Compound 49] | 85 to 94 |

same assay, conditions: effective dose for growth reduction of 50 percent, probit analysis

| Compound | GR50, KCHSC [g ai/ha] |
| --- | --- |
| COC(=O)c1nc(-c2ccc(C3CC3)nc2)c(F)c(N)c1Cl [Compound 49] | 9 |

same assay, conditions: effective dose for growth reduction of 80 percent, probit analysis

| Compound | GR80, KCHSC [g ai/ha] |
| --- | --- |
| COC(=O)c1nc(-c2ccc(C3CC3)nc2)c(F)c(N)c1Cl [Compound 49] | 17 |

test system: LOLSS; test: Post-Emergent Test III (Wheat and Barley); format: in vivo; conditions: effective dose for growth reduction of 50 percent, probit analysis
Procedure: as §1, §2, §3, §4

| Compound | GR50, LOLSS [g ai/ha] |
| --- | --- |
| COC(=O)c1nc(-c2ccc(C3CC3)nc2)c(F)c(N)c1Cl [Compound 49] | 15 |

same assay, conditions: effective dose for growth reduction of 80 percent, probit analysis

| Compound | GR80, LOLSS [g ai/ha] |
| --- | --- |
| COC(=O)c1nc(-c2ccc(C3CC3)nc2)c(F)c(N)c1Cl [Compound 49] | 31 |

same assay, conditions: post-emergence, 504 h; 35 g ai/ha, postemergence; read-out: Visual Growth Reduction (%) 21 Days After Application, LOLSS

| Compound | pest or weed control at 35 g/ha [%] |
| --- | --- |
| COC(=O)c1nc(-c2ccc(C3CC3)nc2)c(F)c(N)c1Cl [Compound 49] | 95 to 100 |

same assay, conditions: post-emergence, 504 h; 70 g ai/ha, postemergence; read-out: Visual Growth Reduction (%) 21 Days After Application, LOLSS

| Compound | pest or weed control at 70 g/ha [%] |
| --- | --- |
| COC(=O)c1nc(-c2ccc(C3CC3)nc2)c(F)c(N)c1Cl [Compound 49] | 85 to 94 |

same assay, conditions: post-emergence, 504 h; 140 g ai/ha, postemergence; read-out: Visual Growth Reduction (%) 21 Days After Application, LOLSS

| Compound | pest or weed control at 140 g/ha [%] |
| --- | --- |
| COC(=O)c1nc(-c2ccc(C3CC3)nc2)c(F)c(N)c1Cl [Compound 49] | 85 to 94 |

test system: TRZSS; test: Post-Emergent Test III (Wheat and Barley); format: in vivo; conditions: Triticum aestivum, post-emergence, 504 h; 35 g ai/ha, postemergence; read-out: Visual Growth Reduction (%) 21 Days After Application, TRZSS
Procedure: as §1, §2, §3, §4

| Compound | pest or weed control at 35 g/ha [%] |
| --- | --- |
| COC(=O)c1nc(-c2ccc(C3CC3)nc2)c(F)c(N)c1Cl [Compound 49] | 75 to 84 |

same assay, conditions: Triticum aestivum, post-emergence, 504 h; 70 g ai/ha, postemergence; read-out: Visual Growth Reduction (%) 21 Days After Application, TRZSS

| Compound | pest or weed control at 70 g/ha [%] |
| --- | --- |
| COC(=O)c1nc(-c2ccc(C3CC3)nc2)c(F)c(N)c1Cl [Compound 49] | 85 to 94 |

same assay, conditions: Triticum aestivum, post-emergence, 504 h; 140 g ai/ha, postemergence; read-out: Visual Growth Reduction (%) 21 Days After Application, TRZSS

| Compound | pest or weed control at 140 g/ha [%] |
| --- | --- |
| COC(=O)c1nc(-c2ccc(C3CC3)nc2)c(F)c(N)c1Cl [Compound 49] | 85 to 94 |

same assay, conditions: effective dose for growth reduction of 20 percent, probit analysis

| Compound | GR20, TRZSS [g ai/ha] |
| --- | --- |
| COC(=O)c1nc(-c2ccc(C3CC3)nc2)c(F)c(N)c1Cl [Compound 49] | 1 |

test system: HORSS; test: Post-Emergent Test III (Wheat and Barley); format: in vivo; conditions: Hordeum vulgare, post-emergence, 504 h; 35 g ai/ha, postemergence; read-out: Visual Growth Reduction (%) 21 Days After Application, HORSS
Procedure: as §1, §2, §3, §4

| Compound | pest or weed control at 35 g/ha [%] |
| --- | --- |
| COC(=O)c1nc(-c2ccc(C3CC3)nc2)c(F)c(N)c1Cl [Compound 49] | 75 to 84 |

same assay, conditions: Hordeum vulgare, post-emergence, 504 h; 70 g ai/ha, postemergence; read-out: Visual Growth Reduction (%) 21 Days After Application, HORSS

| Compound | pest or weed control at 70 g/ha [%] |
| --- | --- |
| COC(=O)c1nc(-c2ccc(C3CC3)nc2)c(F)c(N)c1Cl [Compound 49] | 85 to 94 |

same assay, conditions: Hordeum vulgare, post-emergence, 504 h; 140 g ai/ha, postemergence; read-out: Visual Growth Reduction (%) 21 Days After Application, HORSS

| Compound | pest or weed control at 140 g/ha [%] |
| --- | --- |
| COC(=O)c1nc(-c2ccc(C3CC3)nc2)c(F)c(N)c1Cl [Compound 49] | 85 to 94 |

same assay, conditions: effective dose for growth reduction of 20 percent, probit analysis

| Compound | GR20, HORSS [g ai/ha] |
| --- | --- |
| COC(=O)c1nc(-c2ccc(C3CC3)nc2)c(F)c(N)c1Cl [Compound 49] | 1 |
